Experimental data reported in patent publication US20150259344A1, “IMIDAZOLE DERIVATIVE” (DAINIPPON SUMITOMO PHARMA CO., LTD., priority 2012, published 2015).

Target: T1, human α7 nAChR (Homo sapiens, UniProt P36544)
T1 construct: expressed in transfected cells
Experiment: Evaluation of PAM activity with human α7 nACh receptor stably expressing cells (aequorin luminescence, FDSS7000)
Assay type: cell-based
Settings: for activity at 10 µM: read-out: α7PAM (%) @10 μM; for activity at 1 µM: 1 μM test compound (values marked *, footnote of Table 25), read-out: α7PAM (%) @1 μM; for PAM activity for α7 nAChR (in words): comparison across Tables 18 to 25
Experimental: Evaluation of PAM activity with human α7 nACh receptor stably expressing cells
(1) Human α7 nAChR stably expressing cells
Human α7 nAChR stably expressing cells were generated and cultured.
Thus, the cells were subcultured.
Seven days after subculturing, the cells were treated with TrypLE Express to collect them when they were about 80% confluent.
On the next day after seeding, Viviren (cat#E649X, Promega, Madison, Wis., USA) was added to the medium so that the final concentration could be 4 μM (15 μL/well). The plates were centrifuged and then placed in the dark for 4 hours at room temperature.
(2) Preparation of the Test Samples
Each of the test compounds was dissolved in DMSO to prepare each test sample at a concentration of 1000-fold the final concentration. To the solution was added Hanks/20 mM HEPES/0.2% BSA (cat#A3803, Sigma, St. Louis, Mo., USA), and the concentration was adjusted to 6-fold the final concentration.
(3) Evaluation of PAM Activity
FDSS7000 (Hamamatsu Photonics) was used to detect the luminescence signal evoked by α7 nAChR stimulation. The cells and a luminescent substrate were put on a plate, and the test sample was added thereto. […] The ratio of the RLU (Max-Min) of the test-compound-containing wells to that of the control wells was defined as PAM activity.

[1] = 10 μM test compound, ACh at EC20, ratio of RLU (Max-Min) to control wells
[2] = ACh at EC20, ratio of RLU (Max-Min) to control wells

T1 sequence (P36544 23-502): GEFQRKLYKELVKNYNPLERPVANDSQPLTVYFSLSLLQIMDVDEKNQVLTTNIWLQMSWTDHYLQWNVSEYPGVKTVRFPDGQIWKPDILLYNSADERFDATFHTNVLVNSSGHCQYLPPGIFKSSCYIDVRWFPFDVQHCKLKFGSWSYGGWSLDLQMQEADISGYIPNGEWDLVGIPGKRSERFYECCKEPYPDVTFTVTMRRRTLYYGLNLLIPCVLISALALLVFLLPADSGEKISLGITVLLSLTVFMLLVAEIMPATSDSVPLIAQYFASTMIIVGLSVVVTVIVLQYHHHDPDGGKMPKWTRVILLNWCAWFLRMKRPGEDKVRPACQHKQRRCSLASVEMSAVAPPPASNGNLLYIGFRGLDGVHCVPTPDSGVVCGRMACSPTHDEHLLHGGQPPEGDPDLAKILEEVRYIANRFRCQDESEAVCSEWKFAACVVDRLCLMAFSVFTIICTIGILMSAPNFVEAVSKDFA

activity at 10 µM [1]	SMILES	other results
117%	O=C(NC1CC2CCC1C2)N1CCC(n2cnc(-c3cccc(F)c3)c2)CC1 (stereo not drawn) [Example 2, N-(Bicyclo[2.2.1]hept-2-yl)-4-[4-(3-fluorophenyl)-1H-imidazol-1-yl]piperidine-1-carboxamide]	–
493%	O=C(N[C@H]1CC[C@H](C(F)(F)F)CC1)N1CCC(n2cnc(-c3cccc(F)c3)c2)CC1 [Example 3, 4-[4-(3-Fluorophenyl)-1H-imidazol-1-yl]-N-[trans-4-(trifluoromethyl)cyclohexyl]piperidine-1-carboxamide]	–
220%	CO[C@H]1CC[C@H](NC(=O)N2CCC(n3cnc(-c4ccc(C(F)(F)F)cc4)c3)CC2)CC1 [Example 4, N-(trans-4-Methoxycyclohexyl)-4-{4-[4-(trifluoromethyl)phenyl]-1H-imidazol-1-yl}piperidine-1-carboxamide]	–
292%	O=C(C1CCC(F)(F)CC1)N1CCC(n2cnc(-c3ccccc3)c2)CC1 [Example 6, [4-(4-Phenyl-1H-imidazol-1-yl)piperidin-1-yl](4,4-difluorocyclohexyl)methanone]	–
644%	N#Cc1c(-c2ccccc2)ncn1C1CCN(C(=O)C2CCC(F)(F)CC2)CC1 [Example 7, 1-{1-[(4,4-Difluorocyclohexyl)carbonyl]piperidin-4-yl}-4-phenyl-1H-imidazole-5-carbonitrile]	–
–	CC(C)(F)C(=O)N[C@H]1CC[C@@H](n2cnc(-c3ccc(F)cc3)c2)CC1 [Example 8, 2-Fluoro-N-{cis-4-[4-(4-fluorophenyl)-1H-imidazol-1-yl]cyclohexyl}-2-methylpropanamide]	α7PAM (%) @10 μM [1]: 476%
597%	O=C(NC1CCCCC1)N1CCC(n2cnc(-c3c(F)cccc3F)c2)CC1 [Example 10]	–
–	O=C(NCC1CCCCC1)N1CCC(n2cnc(-c3c(F)cccc3F)c2)CC1 [Example 11]	activity at 1 µM [2]: 116%
283%	O=C(Nc1ccccc1F)N1CCC(n2cnc(-c3c(F)cccc3F)c2)CC1 [Example 12]	–
161%	Cc1ccccc1-c1cn(C2CCN(C(=O)Nc3ccccc3F)CC2)cn1 [Example 13]	–
351%	Cc1ccccc1-c1cn(C2CCN(C(=O)NC3CCCCC3)CC2)cn1 [Example 14]	–
596%	O=C(NC1CCCCC1)N1CCC(n2cnc(-c3ccc(F)cc3)c2)CC1 [Example 15]	–
–	Cc1ccc(-c2cn(C3CCN(C(=O)NC4CCCCC4)CC3)cn2)cc1 [Example 18]	PAM activity for α7 nAChR (in words): stronger PAM activity than others
656%	O=C(NC1CCCCC1)N1CCC(n2cnc(-c3ccc(Cl)cc3)c2)CC1 [Example 20]	–
291%	O=C(Nc1ccccc1F)N1CCC(n2cnc(-c3ccc(Cl)cc3)c2)CC1 [Example 21]	–
–	O=C(NC1CCC(F)(F)CC1)N1CCC(n2cnc(-c3ccc(Cl)cc3)c2)CC1 [Example 22]	PAM activity for α7 nAChR (in words): stronger PAM activity than others
209%	O=C(NC1CCCCC1)N1CCC(n2cnc(-c3ccc(C(F)(F)F)cc3)c2)CC1 [Example 23]	–
228%	O=C(Nc1ccccc1F)N1CCC(n2cnc(-c3ccc(C(F)(F)F)cc3)c2)CC1 [Example 24]	–
–	O=C(NC1CCC(F)(F)CC1)N1CCC(n2cnc(-c3ccc(C(F)(F)F)cc3)c2)CC1 [Example 25]	PAM activity for α7 nAChR (in words): stronger PAM activity than others
563%	O=C(NC1CCCCC1)N1CCC(n2cnc(-c3ccc(F)c(F)c3)c2)CC1 [Example 26]	–
139%	O=C(Nc1ccccc1F)N1CCC(n2cnc(-c3ccc(F)c(F)c3)c2)CC1 [Example 27]	–

activity at 10 µM [1]	SMILES	other results
798%	O=C(NC1CCC(F)(F)CC1)N1CCC(n2cnc(-c3ccc(F)c(F)c3)c2)CC1 [Example 28]	–
378%	O=C(NC1CCOCC1)N1CCC(n2cnc(-c3ccc(C(F)(F)F)cc3)c2)CC1 [Example 29]	–
319%	O=C(NC1CCCC1)N1CCC(n2cnc(-c3cccc(F)c3)c2)CC1 [Example 30]	–
300%	CC1(NC(=O)N2CCC(n3cnc(-c4cccc(F)c4)c3)CC2)CCC1 [Example 31]	–
993%	O=C(NC1CCC(F)(F)CC1)N1CCC(n2cnc(-c3cccc(F)c3)c2)CC1 [Example 32]	–
–	COC1CCC(NC(=O)N2CCC(n3cnc(-c4ccc(F)cc4)c3)CC2)CC1 (stereo not drawn) [Example 33]	activity at 1 µM [2]: 126%
596%	O=C(NC1CCCCC1)N1CCC(n2cnc(-c3cc(F)cc(F)c3)c2)CC1 [Example 34]	–
878%	O=C(NC1CCC(F)(F)CC1)N1CCC(n2cnc(-c3cc(F)cc(F)c3)c2)CC1 [Example 35]	–
193%	O=C(NC1CCCC1)N1CCC(n2cnc(-c3ccccc3)c2)CC1 [Example 36]	–
366%	O=C(NC1CCCCC1)N1CCC(n2cnc(-c3ccccc3)c2)CC1 [Example 37]	–
311%	O=C(NC1CC2CCC1C2)N1CCC(n2cnc(-c3ccccc3)c2)CC1 (stereo not drawn) [Example 38]	–
823%	O=C(NC1CCC(F)(F)CC1)N1CCC(n2cnc(-c3ccccc3)c2)CC1 [Example 39]	–
129%	COC1CCC(NC(=O)N2CCC(n3cnc(-c4ccccc4)c3)CC2)CC1 (stereo not drawn) [Example 40]	–
250%	O=C(NC1CCCCC1)N1CCC(n2cnc(-c3ccc4c(c3)CCO4)c2)CC1 [Example 43]	–
880%	O=C(NC1CCC(F)(F)CC1)N1CCC(n2cnc(-c3ccc4c(c3)CCO4)c2)CC1 [Example 44]	–
260%	O=C(NC1CCCCCC1)N1CCC(n2cnc(-c3cccc(F)c3)c2)CC1 [Example 45]	–
–	O=C(NC1CCC2(CC1)CC2)N1CCC(n2cnc(-c3cccc(F)c3)c2)CC1 [Example 46]	activity at 1 µM [2]: 104%
520%	O=C(NC1CCCCCC1)N1CCC(n2cnc(-c3ccccc3)c2)CC1 [Example 51]	–
205%	COC1CCC(NC(=O)N2CCC(n3cnc(-c4ccc(C(F)(F)F)cc4)c3)CC2)CC1 (stereo not drawn) [Example 52]	–
256%	O=C(NC1CCCCC1)N1CCC(n2cnc(-c3cccc(OC(F)F)c3)c2)CC1 [Example 53]	–
371%	O=C(NC1CCCCC1)N1CCC(n2cnc(-c3ccc(OC(F)F)cc3)c2)CC1 [Example 54]	–

activity at 10 µM [1]	SMILES	other results
403%	CCOc1ccc(-c2cn(C3CCN(C(=O)NC4CCCCC4)CC3)cn2)cc1 [Example 55]	–
169%	O=C(NC1CC2CCC1C2)N1CCC(n2cnc(-c3cccc(OC(F)F)c3)c2)CC1 (stereo not drawn) [Example 56]	–
302%	O=C(NC1CC2CCC1C2)N1CCC(n2cnc(-c3ccc(OC(F)F)cc3)c2)CC1 (stereo not drawn) [Example 57]	–
318%	CCOc1ccc(-c2cn(C3CCN(C(=O)NC4CC5CCC4C5)CC3)cn2)cc1 (stereo not drawn) [Example 58]	–
707%	O=C(NC1CCC(F)(F)CC1)N1CCC(n2cnc(-c3cccc(OC(F)F)c3)c2)CC1 [Example 59]	–
616%	O=C(NC1CCC(F)(F)CC1)N1CCC(n2cnc(-c3ccc(OC(F)F)cc3)c2)CC1 [Example 60]	–
915%	CCOc1ccc(-c2cn(C3CCN(C(=O)NC4CCC(F)(F)CC4)CC3)cn2)cc1 [Example 61]	–
160%	CC(C)(C)NC(=O)N1CCC(n2cnc(-c3ccc(F)cc3)c2)CC1 [Example 63]	–
149%	CC(C)(C)NC(=O)N1CCC(n2cnc(-c3cccc(F)c3)c2)CC1 [Example 64]	–
317%	CC(C)(C)NC(=O)N1CCC(n2cnc(-c3ccccc3F)c2)CC1 [Example 67]	–
158%	COc1cccc(-c2cn(C3CCN(C(=O)NC(C)(C)C)CC3)cn2)c1 [Example 70]	–
422%	COc1cccc(-c2cn(C3CCN(C(=O)NC4CCCCC4)CC3)cn2)c1 [Example 71]	–
–	COc1cc(-c2cn(C3CCN(C(=O)NC4CCCCC4)CC3)cn2)ccc1Cl [Example 72]	PAM activity for α7 nAChR (in words): stronger PAM activity than others
–	O=C(NC1CCCCC1)N1CCC(n2cnc(-c3ccccc3)c2Cl)CC1 [Example 73]	PAM activity for α7 nAChR (in words): stronger PAM activity than others
779%	COc1ccc(-c2ncn(C3CCN(C(=O)NC4CCCC4)CC3)c2Cl)cc1 [Example 74]	–
–	O=C(NC1CCC1)N1CCC(n2cnc(-c3ccccc3)c2Cl)CC1 [Example 79]	activity at 1 µM [2]: 112%
671%	O=C(NC1CCCC1)N1CCC(n2cnc(-c3cccc(F)c3)c2Cl)CC1 [Example 83]	–
747%	O=C(NC1CCCCC1)N1CCC(n2cnc(-c3cccc(F)c3)c2Cl)CC1 [Example 84]	–
758%	CC(C)(C)NC(=O)N1CCC(n2cnc(-c3ccccc3F)c2Cl)CC1 [Example 92]	–
–	O=C(NC1CCOCC1)N1CCC(n2cnc(-c3ccc(C(F)(F)F)cc3)c2Cl)CC1 [Example 93]	PAM activity for α7 nAChR (in words): stronger PAM activity than others

SMILES	activity at 10 µM [1]	other results
O=C(NC1CCCCC1)[C@H]1CC[C@@H](n2cnc(-c3ccccc3)c2)CC1 [Example 9, cis-N-Cyclohexyl-4-(4-phenyl-1H-imidazol-1-yl)cyclohexanecarboxamide]	121%	–
